Columns and labels:
[1] = molecular target: human BACE1 (Homo sapiens, UniProt P56817); assay: Fluorescent kinetic assay: Evaluation of BACE-1 Binding Affinity of Test Compounds; assay type: biochemical; conditions: 10 nM enzyme, 25 μM substrate WABC-6, 50 mM Na-Acetate pH 4.5, room temperature
Summary of the method: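 Run with 10 nM human BACE1 and 25 μM WABC-6 FRET peptide in 50 mM Na-acetate pH 4.5, 0.05% CHAPS, 25% PBS at room temperature. Fluorescence (ex 320/em 420 nm) was read every 40 sec for 30 min, and initial cleavage rates were taken from linear slopes across ≥10 inhibitor concentrations.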

human BACE1, sequence (P56817 46-501): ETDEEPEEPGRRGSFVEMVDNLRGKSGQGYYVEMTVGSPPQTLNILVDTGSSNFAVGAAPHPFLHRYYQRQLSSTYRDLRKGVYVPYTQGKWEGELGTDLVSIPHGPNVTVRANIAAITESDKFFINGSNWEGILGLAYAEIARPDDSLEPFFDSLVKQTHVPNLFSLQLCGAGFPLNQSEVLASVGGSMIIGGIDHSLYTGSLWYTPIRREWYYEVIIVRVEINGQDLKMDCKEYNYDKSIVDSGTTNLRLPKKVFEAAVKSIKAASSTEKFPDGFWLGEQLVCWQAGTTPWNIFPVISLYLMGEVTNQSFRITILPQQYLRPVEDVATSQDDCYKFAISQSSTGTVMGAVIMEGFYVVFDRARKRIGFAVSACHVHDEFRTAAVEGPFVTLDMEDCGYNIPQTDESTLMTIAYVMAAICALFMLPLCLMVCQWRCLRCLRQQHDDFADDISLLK

IC50 [1] [nM]	melting point [°C]	Structure (SMILES)
10 to 100	107 to 111	CCC(=O)c1cc(C2(c3cccc(-c4cccnc4F)c3)N=C(N)N(C)C2=O)cn1C (stereo not drawn) [Example 180]
10 to 100	93 to 96	CCC(=O)c1cc(C2(c3cccc(-c4cccnc4F)c3)N=C(N)N(C)C2=O)cn1Cc1ccccc1 (stereo not drawn) [Example 181]
10 to 100	116 to 120	CCC(=O)c1cc(C2(c3cccc(-c4cccnc4F)c3)N=C(N)N(C)C2=O)cn1Cc1cscn1 (stereo not drawn) [Example 182]
10 to 100	114 to 116	CCC(=O)c1cc([C@]2(c3ccc(F)c(-c4cccnc4F)c3)N=C(N)N(C)C2=O)cn1CC [Example 183A, (5S)-2-Amino-5-(1-ethyl-5-propionyl-1H-pyrrol-3-yl)-5-[4-fluoro-3-(2-fluoropyridin-3-yl)phenyl]-3-methyl-3,5-dihydro-4H-imidazol-4-one]
10 to 100	111 to 113	COC(=O)c1cc([C@]2(c3ccc(F)c(-c4cccnc4F)c3)N=C(N)N(C)C2=O)cn1CCF [Example 184A, Methyl 4-{(4S)-2-amino-4-[4-fluoro-3-(2-fluoropyridin-3-yl)phenyl]-1-methyl-5-oxo-4,5-dihydro-1H-imidazol-4-yl}-1-(2-fluoroethyl)-1H-pyrrole-2-carboxylate]
10 to 100	94 to 97	CCC(=O)c1cc([C@]2(c3cccc(-c4cccnc4F)c3)N=C(N)N(C)C2=O)cn1CC [Example 185, (5S)-2-Amino-5-(1-ethyl-5-propionyl-1H-pyrrol-3-yl)-5-[3-(2-fluoropyridin-3-yl)phenyl]-3-methyl-3,5-dihydro-4H-imidazol-4-one]
10 to 100	114 to 117	CCn1cc([C@]2(c3ccc(F)c(-c4cccnc4F)c3)N=C(N)N(C)C2=O)cc1C(=O)OC [Example 186, Methyl 4-{(4S)-2-amino-4-[4-fluoro-3-(2-fluoropyridin-3-yl)phenyl]-1-methyl-5-oxo-4,5-dihydro-1H-imidazol-4-yl-}-ethyl-1H-pyrrole-2-carboxylate]
10 to 100	109 to 111	CCn1cc([C@]2(c3cccc(-c4cccnc4F)c3)N=C(N)N(C)C2=O)cc1C(C)=O [Example 187, (5S)-5-(5-Acetyl-1-ethyl-1H-pyrrol-3-yl)-2-amino-5-[3-(2-fluoropyridin-3-yl)phenyl]-3-methyl-3,5-dihydro-4H-imidazol-4-one]
10 to 100	193 to 195	CCn1cc(C2(c3ccc(F)c(-c4cccnc4F)c3)N=C(N)N(C)C2=O)cc1S(C)(=O)=O (stereo not drawn) [Example 188, 2-Amino-5-[1-ethyl-5-(methylsulfonyl)-1H-pyrrol-3-yl]-5-[4-fluoro-3-(2-fluoropyridin-3-yl)phenyl]-3-methyl-3,5-dihydro-4H-imidazol-4-one]
10 to 100	206 to 210	COC(=O)c1cc(C2(c3cccc(-c4ccc(F)nc4)c3)N=C(N)N(C)C2=O)cn1CCF (stereo not drawn) [Example 191]
10 to 100	166 to 170	COC(=O)c1cc(C2(c3cccc(-c4cc(F)ccc4F)c3)N=C(N)N(C)C2=O)cn1CCF (stereo not drawn) [Example 192]
10 to 100	173 to 176	COC(=O)c1cc(C2(c3cccc(-c4cc(F)cc(F)c4)c3)N=C(N)N(C)C2=O)cn1CCF (stereo not drawn) [Example 193]
10 to 100	98 to 101	COC(=O)c1cc(C2(c3cccc(-c4cccc(C#N)c4)c3)N=C(N)N(C)C2=O)cn1CCF (stereo not drawn) [Example 194]
10 to 100	147 to 150	COC(=O)c1cc(C2(c3cccc(-c4cc(C#N)ccc4F)c3)N=C(N)N(C)C2=O)cn1CCF (stereo not drawn) [Example 195]
10 to 100	121 to 124	COC(=O)c1cc(C2(c3cccc(-c4cccc(OC)c4)c3)N=C(N)N(C)C2=O)cn1CCF (stereo not drawn) [Example 196]
10 to 100	125 to 128	COC(=O)c1cc(C2(c3cccc(-c4ccc(F)c(F)c4)c3)N=C(N)N(C)C2=O)cn1CCF (stereo not drawn) [Example 198]
110 to 1000	137 to 140	COC(=O)c1cc(C2(c3cccc(-c4ccc5c(c4)OCO5)c3)N=C(N)N(C)C2=O)cn1CCF (stereo not drawn) [Example 199]
10 to 100	108 to 110	CCC(=O)c1cc(C2(c3cccc(-c4cccnc4F)c3)N=C(N)N(C)C2=O)cn1CC(F)(F)F (stereo not drawn) [Example 200, 2-Amino-5-[5-propionyl-1-(2,2,2-trifluoroethyl)-1H-pyrrol-3-yl]-5-[3-(2-fluoropyridin-3-yl)phenyl]-3-methyl-3,5-dihydro-4H-imidazol-4-one]
10 to 100	135 to 137	CCC(=O)c1cc(C2(c3cccc(-c4cncnc4)c3)N=C(N)N(C)C2=O)cn1CC(F)(F)F (stereo not drawn) [Example 201]
10 to 100	103 to 105	CCC(=O)c1cc(C2(c3cccc(-c4cccc(OC)c4)c3)N=C(N)N(C)C2=O)cn1CC(F)(F)F (stereo not drawn) [Example 202]
10 to 100	104 to 106	CCC(=O)c1cc(C2(c3cccc(-c4cc(F)cc(F)c4)c3)N=C(N)N(C)C2=O)cn1CC(F)(F)F (stereo not drawn) [Example 203]

IC50 [1] [nM]	melting point [°C]	Structure (SMILES)
10 to 100	108 to 110	CCC(=O)c1cc(C2(c3cccc(-c4cccc(Cl)c4)c3)N=C(N)N(C)C2=O)cn1CC(F)(F)F (stereo not drawn) [Example 204]
10 to 100	107 to 108	CCC(=O)c1cc(C2(c3cccc(-c4ccc(F)c(Cl)c4)c3)N=C(N)N(C)C2=O)cn1CC(F)(F)F (stereo not drawn) [Example 205]
10 to 100	112 to 114	CCC(=O)c1cc(C2(c3cccc(-c4cccc(C#N)c4)c3)N=C(N)N(C)C2=O)cn1CC(F)(F)F (stereo not drawn) [Example 206]
10 to 100	122 to 124	CCC(=O)c1cc(C2(c3ccc(F)c(-c4cccnc4F)c3)N=C(N)N(C)C2=O)cn1CC(F)(F)F (stereo not drawn) [Example 207]
10 to 100	225 to 226	CCC(=O)c1cc(C2(c3ccc(F)c(-c4cncnc4)c3)N=C(N)N(C)C2=O)cn1CC(F)(F)F (stereo not drawn) [Example 208]
110 to 1000	214 to 225	CN1C(=O)C(c2cccc(-c3cncnc3)c2)(c2cc(C#N)n(C)c2)N=C1N (stereo not drawn) [Example 225, 4-[2-Amino-1-methyl-5-oxo-4-(3-pyrimidin-5-ylphenyl)-4,5-dihydro-1H-imidazol-4-yl]-1-methyl-1H-pyrrole-2-carbonitrile]
110 to 1000	213 to 220	CN1C(=O)C(c2cccc(-c3cccnc3F)c2)(c2cc(C#N)n(C)c2)N=C1N (stereo not drawn) [Example 226]
110 to 1000	> 225	CN1C(=O)C(c2cccc(-c3cc(F)cnc3Cl)c2)(c2cc(C#N)n(C)c2)N=C1N (stereo not drawn) [Example 227]
110 to 1000	193 to 194	CN1C(=O)C(c2cccc(-c3cncnc3)c2)(c2cc(C#N)n(CCF)c2)N=C1N (stereo not drawn) [Example 228]
10 to 100	165 to 166	CCCn1cc(C2(c3cccc(-c4cncnc4)c3)N=C(N)N(C)C2=O)cc1C#N (stereo not drawn) [Example 229]
10 to 100	187 to 188	CCCn1cc(C2(c3cccc(-c4cccnc4F)c3)N=C(N)N(C)C2=O)cc1C#N (stereo not drawn) [Example 230]
10 to 100	175 to 177	CN1C(=O)C(c2cccc(-c3cccnc3F)c2)(c2cc(C#N)n(CCF)c2)N=C1N (stereo not drawn) [Example 231]
110 to 1000	132 to 134	CCCn1cc(C2(c3cccc(-c4cc(F)cnc4Cl)c3)N=C(N)N(C)C2=O)cc1C#N (stereo not drawn) [Example 232]
10 to 100	198 to 201	CCn1cc(C2(c3cccc(-c4cccnc4F)c3)N=C(N)N(C)C2=O)cc1C=O (stereo not drawn) [Example 233, 4-[2-amino-4-[3-(2-fluoropyridin-3-yl)phenyl]-1-methyl-5-oxo-4,5-dihydro-1H-imidazol-4-yl]-1-ethyl-1H-pyrrole-2-carbaldehyde]
10 to 100	218 to 221	CN1C(=O)C(c2cccc(-c3cccnc3F)c2)(c2cc(C=O)n(CCF)c2)N=C1N (stereo not drawn) [Example 234, 4-[2-Amino-4-[3-(2-fluoropyridin-3-yl)phenyl]-1-methyl-5-oxo-4,5-dihydro-1H-imidazol-4-yl]-1-(2-fluoroethyl)-1H-pyrrole-2-carbaldehyde]
> 1000	121 to 140	CCN(CC)Cc1cc(C2(c3cccc(-c4cccnc4F)c3)N=C(N)N(C)C2=O)cn1CCF (stereo not drawn) [Example 235, 2-Amino-5-[5-[(diethylamino)methyl]-1-(2-fluoroethyl)-1H-pyrrol-3-yl]-5-[3-(2-fluoropyridin-3-yl)phenyl]-3-methyl-3,5-dihydro-4H-imidazol-4-one]
> 1000	98 to 99	CC(C)NCc1cc(C2(c3cccc(-c4cccnc4F)c3)N=C(N)N(C)C2=O)cn1CCF (stereo not drawn) [Example 236]
> 1000	110 to 120	CN1C(=O)C(c2cccc(-c3cccnc3F)c2)(c2cc(CN3CCCC3)n(CCF)c2)N=C1N (stereo not drawn) [Example 237]
110 to 1000	118 to 121	CN(C)Cc1cc(C2(c3cccc(-c4cccnc4F)c3)N=C(N)N(C)C2=O)cn1CCF (stereo not drawn) [Example 238]
10 to 100	170 to 172	CCn1cc(C2(c3cccc(-c4cccnc4F)c3)N=C(N)N(C)C2=O)cc1CO (stereo not drawn) [Example 239, 2-Amino-5-[1-ethyl-5-(hydroxymethyl)-1H-pyrrol-3-yl]-5-[3-(2-fluoropyridin-3-yl)phenyl]-3-methyl-3,5-dihydro-4H-imidazol-4-one]
110 to 1000	115 to 121	CCC(O)c1cc(C2(c3cccc(-c4cccnc4F)c3)N=C(N)N(C)C2=O)cn1CC (stereo not drawn) [Example 240, 2-Amino-5-[1-ethyl-5-(1-hydroxypropyl)-1H-pyrrol-3-yl]-5-[3-(2-fluoropyridin-3-yl)phenyl]-3-methyl-3,5-dihydro-4H-imidazol-4-one]

From patent publication US7705030B2, “Amino-5-(5-membered)hetero-arylimidazolone compounds and the use thereof for β-secretase modulation” (Wyeth LLC, priority 2005, dated 2010)
